ChEMBL document CHEMBL1201862, “PubChem BioAssay data set” (2004)
Activity calls are given as the source filed them.

Key:
[1] = general mammalian cell viability loss – inhibitor set, cherry-pick, set 2, cytotoxicity control for miR-122 modulator project, dose response (AID 720697); assay type: functional, cell-based
[2] = molecular target: FAD-linked sulfhydryl oxidase ALR (Homo sapiens, UniProt P55789); assay: ALR-catalysed DTT oxidation blockers – biochemical, H2O2 detection, luminescence, cherry-pick, dose response (AID 493248)
FAD-linked sulfhydryl oxidase ALR, sequence (P55789 whole entry): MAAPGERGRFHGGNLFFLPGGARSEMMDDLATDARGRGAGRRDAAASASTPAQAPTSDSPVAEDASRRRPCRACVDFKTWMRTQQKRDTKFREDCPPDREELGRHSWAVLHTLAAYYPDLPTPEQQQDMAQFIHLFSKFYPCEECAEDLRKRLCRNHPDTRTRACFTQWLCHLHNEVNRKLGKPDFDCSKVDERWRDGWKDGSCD

[3] = HGIII-sPLA2 enzyme inhibition potency – biochemical, QFRET, IC50, dose response (AID 743457);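 further: green fluorescence rise as the enzyme cleaves BODIPY PC-A2 in liposomes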
[4] = molecular target: T1, Rac GTPase-activating protein 1 (Homo sapiens, UniProt Q9H0H5); assay: blockers of MgcRacGAP-driven Rac1 GTP hydrolysis – biochemical, ADP Hunter fluorescence, primary and confirmatory, confirmation (AID 624330); assay type: functional
T1 sequence (Q9H0H5 whole entry): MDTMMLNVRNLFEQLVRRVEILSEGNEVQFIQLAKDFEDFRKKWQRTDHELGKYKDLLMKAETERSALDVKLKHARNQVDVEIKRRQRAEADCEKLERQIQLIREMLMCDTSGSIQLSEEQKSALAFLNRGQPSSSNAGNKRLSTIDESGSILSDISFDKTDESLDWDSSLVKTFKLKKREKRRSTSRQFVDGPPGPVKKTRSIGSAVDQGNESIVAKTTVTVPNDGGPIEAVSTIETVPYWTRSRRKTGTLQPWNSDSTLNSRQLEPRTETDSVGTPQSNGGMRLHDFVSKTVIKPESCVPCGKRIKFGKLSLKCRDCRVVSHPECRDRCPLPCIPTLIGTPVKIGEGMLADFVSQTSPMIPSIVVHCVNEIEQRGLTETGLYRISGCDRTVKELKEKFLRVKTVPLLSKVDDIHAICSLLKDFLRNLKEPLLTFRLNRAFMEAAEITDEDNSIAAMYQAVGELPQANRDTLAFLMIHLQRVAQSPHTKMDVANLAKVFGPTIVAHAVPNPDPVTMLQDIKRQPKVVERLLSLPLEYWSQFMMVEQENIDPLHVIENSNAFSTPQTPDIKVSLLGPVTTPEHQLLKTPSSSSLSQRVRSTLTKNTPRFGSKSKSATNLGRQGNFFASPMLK

Cytochrome P450 2C9 = Cytochrome P450 2C9 (Homo sapiens, UniProt P11712)
Cytochrome P450 2C9, sequence (P11712 whole entry): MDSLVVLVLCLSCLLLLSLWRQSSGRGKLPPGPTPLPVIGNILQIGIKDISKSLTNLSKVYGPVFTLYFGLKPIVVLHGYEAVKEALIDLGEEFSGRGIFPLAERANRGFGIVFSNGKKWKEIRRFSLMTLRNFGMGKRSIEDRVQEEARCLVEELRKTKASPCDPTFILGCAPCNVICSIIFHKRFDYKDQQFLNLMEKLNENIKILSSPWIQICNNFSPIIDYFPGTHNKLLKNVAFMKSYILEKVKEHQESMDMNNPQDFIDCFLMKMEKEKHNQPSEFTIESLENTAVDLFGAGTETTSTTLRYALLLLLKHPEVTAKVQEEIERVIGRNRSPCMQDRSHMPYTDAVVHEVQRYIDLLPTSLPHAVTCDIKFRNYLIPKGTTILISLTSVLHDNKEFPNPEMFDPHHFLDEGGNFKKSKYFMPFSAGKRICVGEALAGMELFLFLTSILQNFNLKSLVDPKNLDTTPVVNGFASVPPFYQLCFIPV

Cytochrome P450 2C19 = Cytochrome P450 2C19 (Homo sapiens, UniProt P33261); assay: Cytochrome panel assay with activity outcomes. Panel member name: p450-cyp2c19 Compounds with AC50 equal or less than 10 uM are considered active; assay type: functional; settings: read-out: AC50
Cytochrome P450 2C19, sequence (P33261 whole entry): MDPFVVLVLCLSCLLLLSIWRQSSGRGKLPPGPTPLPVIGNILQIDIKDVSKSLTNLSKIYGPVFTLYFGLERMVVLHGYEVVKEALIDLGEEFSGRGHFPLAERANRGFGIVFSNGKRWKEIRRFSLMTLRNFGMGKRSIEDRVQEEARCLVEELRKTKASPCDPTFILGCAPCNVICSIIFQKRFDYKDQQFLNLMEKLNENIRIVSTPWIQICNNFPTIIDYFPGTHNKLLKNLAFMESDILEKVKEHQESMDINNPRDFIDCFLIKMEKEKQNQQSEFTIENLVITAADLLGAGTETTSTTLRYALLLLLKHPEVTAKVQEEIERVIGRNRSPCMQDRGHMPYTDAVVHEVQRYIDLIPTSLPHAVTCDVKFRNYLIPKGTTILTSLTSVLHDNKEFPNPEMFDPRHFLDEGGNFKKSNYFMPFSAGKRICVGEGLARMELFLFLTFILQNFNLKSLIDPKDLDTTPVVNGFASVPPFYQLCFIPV

Cytochrome P450 3A4 = Cytochrome P450 3A4 (Homo sapiens, UniProt P08684);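 further: CYP3A4 tested as one member of a cytochrome P450 panel screen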
Cytochrome P450 3A4, sequence (P08684 whole entry): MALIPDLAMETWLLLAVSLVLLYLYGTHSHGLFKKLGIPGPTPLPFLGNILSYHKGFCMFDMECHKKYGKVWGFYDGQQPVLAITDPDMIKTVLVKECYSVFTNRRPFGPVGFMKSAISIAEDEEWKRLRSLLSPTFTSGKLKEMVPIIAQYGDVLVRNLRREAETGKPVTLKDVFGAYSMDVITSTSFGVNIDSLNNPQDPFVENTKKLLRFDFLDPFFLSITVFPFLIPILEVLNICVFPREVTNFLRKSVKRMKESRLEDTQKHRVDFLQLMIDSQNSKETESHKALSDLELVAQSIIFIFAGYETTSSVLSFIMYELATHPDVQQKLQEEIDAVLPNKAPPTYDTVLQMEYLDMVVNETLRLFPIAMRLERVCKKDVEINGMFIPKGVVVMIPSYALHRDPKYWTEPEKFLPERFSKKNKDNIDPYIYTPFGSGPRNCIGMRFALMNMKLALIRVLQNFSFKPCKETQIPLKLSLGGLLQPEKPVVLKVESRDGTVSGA

fMet-Leu-Phe receptor = fMet-Leu-Phe receptor (Homo sapiens, UniProt P21462); assay: formyl peptide receptor binders – dose response (AID 519); assay type: functional
fMet-Leu-Phe receptor, sequence (P21462 whole entry): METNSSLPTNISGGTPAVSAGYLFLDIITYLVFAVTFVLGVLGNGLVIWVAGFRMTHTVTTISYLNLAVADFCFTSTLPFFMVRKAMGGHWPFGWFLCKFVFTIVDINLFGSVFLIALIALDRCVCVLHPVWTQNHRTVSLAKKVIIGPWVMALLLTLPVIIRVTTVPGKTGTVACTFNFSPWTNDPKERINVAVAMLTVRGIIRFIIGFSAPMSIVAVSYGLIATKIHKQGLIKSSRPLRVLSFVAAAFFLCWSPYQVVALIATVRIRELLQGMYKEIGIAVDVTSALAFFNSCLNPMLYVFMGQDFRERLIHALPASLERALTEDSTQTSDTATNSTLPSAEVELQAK

Cytochrome P450 1A2 = molecular target: T2, Cytochrome P450 1A2 (Homo sapiens, UniProt P05177);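 further: PubChem cytochrome P450 panel assay, CYP1A2 panel member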
T2 sequence (P05177 whole entry): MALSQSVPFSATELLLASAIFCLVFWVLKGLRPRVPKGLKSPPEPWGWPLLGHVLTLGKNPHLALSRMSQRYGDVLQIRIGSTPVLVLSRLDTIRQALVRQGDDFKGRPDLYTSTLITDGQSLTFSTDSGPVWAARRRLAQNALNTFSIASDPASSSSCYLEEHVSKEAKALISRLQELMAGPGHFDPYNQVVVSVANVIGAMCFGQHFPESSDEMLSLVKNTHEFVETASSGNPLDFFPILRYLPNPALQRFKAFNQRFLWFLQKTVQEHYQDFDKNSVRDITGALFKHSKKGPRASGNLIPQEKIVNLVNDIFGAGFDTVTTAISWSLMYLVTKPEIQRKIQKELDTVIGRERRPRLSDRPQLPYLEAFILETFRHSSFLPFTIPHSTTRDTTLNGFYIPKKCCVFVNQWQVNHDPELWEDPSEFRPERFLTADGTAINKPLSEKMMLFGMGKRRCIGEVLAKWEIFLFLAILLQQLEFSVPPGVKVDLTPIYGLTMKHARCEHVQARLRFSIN

[5] = molecular target: Nuclear receptor subfamily 5 group A member 2 (Homo sapiens, UniProt O00482); assay type: functional, cell-based;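 further: HEK293T cells transfected with LRH-1 and a StAR promoter luciferase reporter; potency for inhibitors that lower LRH-1 driven reporter light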
Nuclear receptor subfamily 5 group A member 2, sequence (O00482 whole entry): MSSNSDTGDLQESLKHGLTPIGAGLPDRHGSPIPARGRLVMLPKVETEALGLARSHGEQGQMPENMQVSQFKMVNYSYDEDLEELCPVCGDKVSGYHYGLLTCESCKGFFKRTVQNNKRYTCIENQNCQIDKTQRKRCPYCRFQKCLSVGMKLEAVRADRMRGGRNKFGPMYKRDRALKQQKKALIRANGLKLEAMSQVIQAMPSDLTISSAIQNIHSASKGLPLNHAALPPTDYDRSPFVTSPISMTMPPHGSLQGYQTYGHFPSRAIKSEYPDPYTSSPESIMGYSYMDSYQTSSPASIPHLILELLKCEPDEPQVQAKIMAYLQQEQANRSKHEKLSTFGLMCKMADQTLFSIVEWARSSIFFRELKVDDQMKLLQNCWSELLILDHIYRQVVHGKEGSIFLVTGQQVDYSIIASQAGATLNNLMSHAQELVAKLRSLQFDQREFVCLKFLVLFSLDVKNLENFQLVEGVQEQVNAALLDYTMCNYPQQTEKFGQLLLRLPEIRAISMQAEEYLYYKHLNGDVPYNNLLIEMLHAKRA

Albumin = Albumin (Bos taurus, UniProt P02769); assay: Counterscreen for inhibitors of T-cell receptor (TCR)-CD3 interaction: Fluorescence-based biochemical high throughput dose response assay to identify inhibitors of T-cell receptor (TCR)-CD3 interaction using a TAMRA-labeled BSA probe.; assay type: functional
Albumin, sequence (P02769 whole entry): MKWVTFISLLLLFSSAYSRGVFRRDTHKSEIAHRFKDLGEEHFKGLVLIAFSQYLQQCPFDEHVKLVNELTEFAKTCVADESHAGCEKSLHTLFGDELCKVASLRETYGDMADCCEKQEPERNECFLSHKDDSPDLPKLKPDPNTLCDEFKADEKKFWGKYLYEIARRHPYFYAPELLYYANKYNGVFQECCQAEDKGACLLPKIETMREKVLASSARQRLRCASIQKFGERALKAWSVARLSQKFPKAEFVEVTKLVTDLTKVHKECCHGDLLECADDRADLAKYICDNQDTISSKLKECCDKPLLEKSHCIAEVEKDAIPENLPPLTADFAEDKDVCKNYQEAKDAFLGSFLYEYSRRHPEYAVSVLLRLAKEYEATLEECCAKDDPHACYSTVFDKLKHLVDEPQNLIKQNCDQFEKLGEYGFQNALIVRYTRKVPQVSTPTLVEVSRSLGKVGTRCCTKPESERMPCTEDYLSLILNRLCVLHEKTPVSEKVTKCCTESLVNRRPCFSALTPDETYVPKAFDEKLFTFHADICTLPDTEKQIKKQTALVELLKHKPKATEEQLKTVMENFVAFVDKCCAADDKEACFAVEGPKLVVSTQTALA

[6] = molecular target: T3, Low molecular weight phosphotyrosine protein phosphatase (Homo sapiens, UniProt P24666); assay type: functional; settings: read-out: IC50_Mean;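 further: Dose-response confirmation assay measuring inhibition of LMPTP enzyme activity by fluorescence intensity read-out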
T3 sequence (P24666 whole entry): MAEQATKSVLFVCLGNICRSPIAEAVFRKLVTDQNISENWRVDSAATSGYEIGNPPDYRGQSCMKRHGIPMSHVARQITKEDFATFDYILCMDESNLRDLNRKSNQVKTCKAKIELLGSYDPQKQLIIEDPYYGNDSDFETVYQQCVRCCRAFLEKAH

[7] = molecular target: T4, Carboxy-terminal domain RNA polymerase II polypeptide A small phosphatase 1 (Homo sapiens, UniProt Q9GZU7); assay: CTDSP1 inhibitors, concentration-response, biochemical, absorbance readout, ultra-high-throughput screen actives (AID 540297); assay type: functional
T4 sequence (Q9GZU7 whole entry): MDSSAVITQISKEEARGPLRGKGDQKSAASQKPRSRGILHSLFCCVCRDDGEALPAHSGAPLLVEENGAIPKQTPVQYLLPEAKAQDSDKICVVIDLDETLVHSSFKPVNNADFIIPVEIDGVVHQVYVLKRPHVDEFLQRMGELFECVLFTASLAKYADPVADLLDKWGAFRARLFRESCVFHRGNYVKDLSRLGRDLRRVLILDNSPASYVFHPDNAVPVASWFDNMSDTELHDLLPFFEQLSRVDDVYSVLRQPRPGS

Steroidogenic factor 1 = Steroidogenic factor 1 (Homo sapiens, UniProt Q13285); assay: Counterscreen for inverse agonists of the liver receptor homolog-1 (LRH-1; NR5A2): Luminescence-based cell-based high throughput dose response assay to identify inverse agonists of the Steroidogenic Factor 1 Nuclear Receptor (SF1; NR5A1).; assay type: functional
Steroidogenic factor 1, sequence (Q13285 whole entry): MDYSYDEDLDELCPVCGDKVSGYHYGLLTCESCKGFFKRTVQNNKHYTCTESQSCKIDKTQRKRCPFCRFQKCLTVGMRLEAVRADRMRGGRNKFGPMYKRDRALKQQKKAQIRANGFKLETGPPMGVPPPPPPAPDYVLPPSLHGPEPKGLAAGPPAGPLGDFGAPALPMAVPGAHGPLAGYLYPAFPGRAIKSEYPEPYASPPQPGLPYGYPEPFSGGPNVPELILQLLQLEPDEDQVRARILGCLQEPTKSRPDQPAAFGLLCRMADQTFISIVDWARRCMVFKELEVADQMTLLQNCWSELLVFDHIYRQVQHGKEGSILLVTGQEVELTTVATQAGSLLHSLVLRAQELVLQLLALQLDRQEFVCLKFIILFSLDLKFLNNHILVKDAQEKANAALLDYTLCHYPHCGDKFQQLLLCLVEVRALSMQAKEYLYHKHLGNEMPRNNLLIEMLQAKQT

[8] = molecular target: T5, DNA repair and recombination protein RAD54-like (Homo sapiens, UniProt Q92698); assay: RAD54 Holliday junction migration blockers – biochemical, fluorescence, cherry-picked samples, dose series, confirmation (AID 651657); assay type: functional
T5 sequence (Q92698 whole entry): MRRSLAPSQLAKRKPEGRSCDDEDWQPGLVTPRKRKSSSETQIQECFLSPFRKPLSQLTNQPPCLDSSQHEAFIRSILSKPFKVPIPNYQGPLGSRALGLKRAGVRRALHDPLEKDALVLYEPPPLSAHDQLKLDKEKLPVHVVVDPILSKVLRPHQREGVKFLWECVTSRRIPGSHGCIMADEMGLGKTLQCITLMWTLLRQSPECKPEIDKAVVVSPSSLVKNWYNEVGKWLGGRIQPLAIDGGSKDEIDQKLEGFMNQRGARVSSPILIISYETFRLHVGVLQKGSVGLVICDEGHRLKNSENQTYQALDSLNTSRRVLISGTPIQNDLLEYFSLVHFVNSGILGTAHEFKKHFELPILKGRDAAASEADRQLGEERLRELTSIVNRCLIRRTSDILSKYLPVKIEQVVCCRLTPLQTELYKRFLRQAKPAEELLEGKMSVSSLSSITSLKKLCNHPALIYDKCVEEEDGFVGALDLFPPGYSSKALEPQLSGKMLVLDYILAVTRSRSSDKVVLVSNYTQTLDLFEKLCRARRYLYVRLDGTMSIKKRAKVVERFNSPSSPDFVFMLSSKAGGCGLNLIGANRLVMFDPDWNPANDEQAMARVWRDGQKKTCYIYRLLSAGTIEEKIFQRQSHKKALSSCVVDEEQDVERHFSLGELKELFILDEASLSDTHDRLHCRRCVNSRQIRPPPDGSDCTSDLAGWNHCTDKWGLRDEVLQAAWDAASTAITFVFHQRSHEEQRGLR

[9] = molecular target: T6, DNA repair protein RAD52 homolog (Homo sapiens, UniProt P43351); assay type: functional, biochemical
T6 sequence (P43351 whole entry): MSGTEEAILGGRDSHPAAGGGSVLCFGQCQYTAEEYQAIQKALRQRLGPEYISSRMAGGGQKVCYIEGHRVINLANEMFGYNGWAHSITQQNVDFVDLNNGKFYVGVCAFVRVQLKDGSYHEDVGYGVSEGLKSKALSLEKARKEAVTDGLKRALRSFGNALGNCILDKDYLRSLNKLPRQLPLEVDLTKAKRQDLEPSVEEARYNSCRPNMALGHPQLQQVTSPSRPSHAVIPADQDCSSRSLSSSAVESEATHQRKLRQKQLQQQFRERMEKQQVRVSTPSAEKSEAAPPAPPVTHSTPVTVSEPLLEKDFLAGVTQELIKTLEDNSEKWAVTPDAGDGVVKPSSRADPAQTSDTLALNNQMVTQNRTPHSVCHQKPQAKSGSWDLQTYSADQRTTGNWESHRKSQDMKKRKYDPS

[10] = molecular target: T7, Oxysterols receptor LXR-beta (Homo sapiens, UniProt P55055); assay type: functional, cell-based;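 further: agonist activity at LXR measured by a cell-based luminescence readout across a dose range, run as a counterscreen for daf-12 agonists; HEK293 cells with Gal4-LXR fusion and GAL4-driven luciferase reporter; potency for activation of Gal4-LXR reporter so compounds are agonists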
T7 sequence (P55055 whole entry): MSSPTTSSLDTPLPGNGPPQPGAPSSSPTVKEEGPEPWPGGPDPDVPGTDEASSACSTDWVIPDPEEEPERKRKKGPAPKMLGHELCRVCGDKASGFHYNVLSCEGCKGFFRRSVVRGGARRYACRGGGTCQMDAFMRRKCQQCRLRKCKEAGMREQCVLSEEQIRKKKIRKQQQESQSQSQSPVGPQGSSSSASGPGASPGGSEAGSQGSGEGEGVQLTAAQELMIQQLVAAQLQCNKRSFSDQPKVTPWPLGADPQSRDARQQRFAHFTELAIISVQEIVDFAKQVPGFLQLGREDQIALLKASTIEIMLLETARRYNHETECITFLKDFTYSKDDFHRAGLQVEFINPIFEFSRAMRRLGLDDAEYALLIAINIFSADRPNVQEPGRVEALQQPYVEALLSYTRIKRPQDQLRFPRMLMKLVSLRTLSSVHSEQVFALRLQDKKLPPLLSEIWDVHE

[11] = molecular target: T8, Trace amine-associated receptor 1 (Homo sapiens, UniProt Q96RJ0); assay: Fluorescence-based cell-based high throughput dose response assay to identify agonists of the human trace amine associated receptor 1 (TAAR1).; assay type: functional
T8 sequence (Q96RJ0 whole entry): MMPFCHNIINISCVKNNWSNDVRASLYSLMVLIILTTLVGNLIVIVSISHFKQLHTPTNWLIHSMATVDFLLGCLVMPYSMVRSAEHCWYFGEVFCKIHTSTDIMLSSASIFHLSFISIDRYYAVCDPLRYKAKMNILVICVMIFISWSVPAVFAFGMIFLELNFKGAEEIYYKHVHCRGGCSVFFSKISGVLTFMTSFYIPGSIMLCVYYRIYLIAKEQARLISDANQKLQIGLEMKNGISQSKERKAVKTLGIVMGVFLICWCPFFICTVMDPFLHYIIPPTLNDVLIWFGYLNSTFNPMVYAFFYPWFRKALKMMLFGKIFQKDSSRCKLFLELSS

cells [12] = assay type: functional, cell-based
[13] = molecular target: T8, Trace amine-associated receptor 1; assay: Counterscreen for agonists of the human trace amine associated receptor 1 (hTAAR1): Fluorescence-based cell-based high throughput dose response assay to identify hTAAR1 agonist that also desensitize TAAR1 receptor response.; assay type: functional
cells [14] = assay type: functional, cell-based; remark: listed apart in the source
[15] = viability loss in CEM21 cells – cell-based, CellTiter-Glo luminescence, cherry-picked, cytotoxicity control for viral fusion inhibitor project, dose response (AID 652042); assay type: functional;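 further: potency for signal decrease meaning cytotoxicity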
[16] = blockers of HIV-1 envelope-mediated cell-cell fusion – cherry-pick, dose response (AID 652057); assay type: functional, cell-based
[17] = T. cruzi growth inhibition in host cells, dose response, cell-based, plate reader, dry powder, set 2 (AID 652275); assay type: functional
[18] = MITF Orthogonal Assay: SK-MEL-5 CTG Assay Measured in Cell-Based System Using Plate Reader - 2084-02_Inhibitor_Dose_DryPowder_Activity_Set7.; assay type: functional
[19] = MITF: Counter assay: A375 proliferation Measured in Cell-Based System Using Plate Reader - 2084-03_Inhibitor_Dose_DryPowder_Activity_Set8.; assay type: functional; settings: A-375

## CCOc1ccc(C(CCc2ccccc2)NC(=O)c2ccccc2F)cc1OCC (stereo not drawn)
[1]
  AC50: 4.56 µM (active)

## O=C(Nc1ccc(N2CCCCCC2)cc1)c1ccc[nH]1
[2]
  AC50: 0.42 µM (active)
[3]
  IC50: 100 µM (inactive)
[4]
  IC50: 34 µM (active)

## COc1cc(C2C(C(=O)c3cccs3)=C(O)C(=O)N2Cc2ccco2)cc(OC)c1OC (stereo not drawn)
Cytochrome P450 2C9
  AC50: 25.1 µM (inconclusive)
Cytochrome P450 2C19
  AC50: 14.1 µM (inconclusive)
Cytochrome P450 3A4
  AC50: 25.1 µM (inconclusive)
fMet-Leu-Phe receptor
  Ki: 27 µM (inactive)
Cytochrome P450 1A2
  AC50: 17.8 µM (inconclusive)

## COc1ccc(NC(=O)CSc2sc3c(O)cc(=O)[nH]c3c2C#N)c(OC)c1
[5]
  IC50: 20.2 µM (inactive)
Albumin
  IC50: > 94.1 µM (inactive)
[6]
  IC50: 26 µM (inactive)
[7]
  IC50: 4.21 µM (active)
Steroidogenic factor 1
  IC50: 13 µM (inactive)

## Cc1c(CNCc2cccs2)c(C(=O)O)c(C)n1Cc1ccccc1
fMet-Leu-Phe receptor
  Ki: > 66.7 µM (inactive)

## COc1ccc2oc3cc(NCCN(C)C)ccc3c(=O)c2c1
[8]
  AC50: 7.73 µM (active)
[9]
  AC50: 5.46 µM (active)
[10]
  EC50: > 67.5 µM (inactive)

## O=C(CC1CCCC1)N[C@H](C(=O)N1CCC[C@H]1C(=O)NCCc1ccccc1Cl)c1ccccc1
[11]
  EC50: 2.2 µM (active)
Cells [12]
  EC50: > 29.9 µM (inactive)
[13]
  IC50: 6.57 µM (active)
Cells [14]
  IC50: > 29.9 µM (inactive)

## COc1ccc2c3c([nH]c2c1)[C@H](CO)N(C(=O)Nc1cccc(F)c1)CC31CCN(S(=O)(=O)c2ccccc2)CC1
[15]
  AC50: 19.4 µM (active)
[16]
  AC50: 25.4 µM (active)

## CC(C)N1CC2(CN(Cc3ccccn3)C2)Oc2c(NC(=O)c3ccncc3)cccc2C1=O
[17]
  AC50: 1.37 µM (active)

## O=C1C=C(NC2CCCCC2)C(=O)c2ccccc21
[18]
  AC50: 18.9 µM (active)
[19]
  AC50: > 70 µM (inactive)

## COCCNC(=O)c1cc2c(c(-c3cccc(C#CCN(C)C)c3)n1)[C@@H](CCO)N([S+]([O-])C(C)(C)C)C2 (stereo partly drawn)
[17]
  AC50: 4.21 µM (active)
